In patent US20230278983A1, “INDOLE DERIVATIVES AND USES THEREOF FOR TREATING A CANCER” (Universite Claude Bernard Lyon 1, priority 2020, published 2023):

Molecular target: CK2 (Homo sapiens (Human), UniProt P68400)
Test: Radiometric CK2 kinase assay
Format: biochemical
Conditions: for inhibition at 0.1 µM: compound at 0.10 μM; for inhibition at 0.1 µM / inhibition at 0.05 µM: ATP 10 μM; for inhibition at 0.05 µM: compound at 0.05 μM

CK2, sequence (P68400 whole entry): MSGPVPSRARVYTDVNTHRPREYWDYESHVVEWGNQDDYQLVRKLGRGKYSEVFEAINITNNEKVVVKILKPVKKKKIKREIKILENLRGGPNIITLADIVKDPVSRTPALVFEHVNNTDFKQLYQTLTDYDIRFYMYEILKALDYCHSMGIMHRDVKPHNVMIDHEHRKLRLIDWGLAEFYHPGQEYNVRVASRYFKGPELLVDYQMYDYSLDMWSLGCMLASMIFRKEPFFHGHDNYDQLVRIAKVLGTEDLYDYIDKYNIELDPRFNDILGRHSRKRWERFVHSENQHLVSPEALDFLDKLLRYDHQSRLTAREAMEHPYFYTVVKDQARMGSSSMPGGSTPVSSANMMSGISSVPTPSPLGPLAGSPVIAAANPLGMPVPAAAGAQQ

SMILES | IC50 | also measured
CC(C)Cc1ccc(S(=O)(=O)NCCN2CCC(Cn3cc(-c4c(C(=O)N5CCOCC5)[nH]c5ccc(F)cc45)nn3)CC2)cc1 [AB1132, N-(2-(4-((4-(5-fluoro-2-(morpholine-4-carbonyl)-1H-indol-3-yl)-1H-1,2,3-triazol-1-yl)methyl)piperidin-1-yl)ethyl)-4-isobutylbenzenesulfonamide] | – | inhibition at 0.1 µM: 4%
CC(C)COC(=O)c1[nH]c2ccc(F)cc2c1-c1cn(CC2CCN(CCNS(=O)(=O)c3ccc(-c4cccnc4Cl)cc3)CC2)nn1 [AB1133, isobutyl 3-(1-((1-(2-((4-(2-chloropyridin-3-yl)phenyl)sulfonamido)ethyl)piperidin-4-yl)methyl)-1H-1,2,3-triazol-4-yl)-5-fluoro-1H-indole-2-carboxylate] | 26 nM | –
CC(C)COC(=O)c1[nH]c2ccc(F)cc2c1-c1cn(CC2CCN(CCNS(=O)(=O)c3ccc(-c4ccc(C#N)cc4)cc3)CC2)nn1 [AB1134, isobutyl 3-(1-((1-(2-((4′-cyano-[1,1′-biphenyl])-4-sulfonamido)ethyl)piperidin-4-yl)methyl)-1H-1,2,3-triazol-4-yl)-5-fluoro-1H-indole-2-carboxylate] | – | inhibition at 0.1 µM: 5%
CC(=O)c1[nH]c2ccc(F)cc2c1-c1cn(CC2CCN(CCNS(=O)(=O)c3ccc(CC(C)C)cc3)CC2)nn1 [AB1135, N-(2-(4-((4-(2-acetyl-5-fluoro-1H-indol-3-yl)-1H-1,2,3-triazol-1-yl)methyl)piperidin-1-yl)ethyl)-4-isobutylbenzenesulfonamide] | 48 nM | –
CCCCC(=O)c1[nH]c2ccc(F)cc2c1-c1cn(CC2CCN(CCNS(=O)(=O)c3ccc(CC(C)C)cc3)CC2)nn1 [AB1145, N-(2-(4-((4-(5-fluoro-2-pentanoyl-1H-indol-3-yl)-1H-1,2,3-triazol-1-yl)methyl)piperidin-1-yl)ethyl)-4-isobutylbenzenesulfonamide] | 130 nM | –
COc1ccccc1-c1ccc(S(=O)(=O)NCCN2CCC(Cn3cc(-c4c(C(=O)OCC(C)C)[nH]c5ccc(F)cc45)nn3)CC2)cc1 [AB1205, isobutyl 5-fluoro-3-(1-((1-(2-((2′-methoxy-[1,1′-biphenyl])-4-sulfonamido)ethyl)piperidin-4-yl)methyl)-1H-1,2,3-triazol-4-yl)-1H-indole-2-carboxylate] | – | inhibition at 0.05 µM: 59%
COc1cccc(OC)c1-c1ccc(S(=O)(=O)NCCN2CCC(Cn3cc(-c4c(C(=O)OCC(C)C)[nH]c5ccc(F)cc45)nn3)CC2)cc1 [AB1206, isobutyl 3-(1-((1-(2-((2′,6′-dimethoxy-[1,1′-biphenyl])-4-sulfonamido)ethyl)piperidin-4-yl)methyl)-1H-1,2,3-triazol-4-yl)-5-fluoro-1H-indole-2-carboxylate] | 16 nM | –
CC(C)COC(=O)c1[nH]c2ccc(F)cc2c1-c1cn(CC2CCN(CCNS(=O)(=O)c3ccc(-c4cccnc4F)cc3)CC2)nn1 [AB1207, isobutyl 5-fluoro-3-(1-((1-(2-((4-(2-fluoropyridin-3-yl)phenyl)sulfonamido)ethyl)piperidin-4-yl)methyl)-1H-1,2,3-triazol-4-yl)-1H-indole-2-carboxylate] | – | inhibition at 0.05 µM: 61%
CC(C)COC(=O)c1[nH]c2ccc(F)cc2c1-c1cn(CC2CCN(CCNS(=O)(=O)c3ccc(-c4c(F)cccc4F)cc3)CC2)nn1 [AB1208, isobutyl 3-(1-((1-(2-((2′,6′-difluoro-[1,1′-biphenyl])-4-sulfonamido)ethyl)piperidin-4-yl)methyl)-1H-1,2,3-triazol-4-yl)-5-fluoro-1H-indole-2-carboxylate] | 45 nM | –
CC(C)COC(=O)c1[nH]c2ccc(F)cc2c1-c1cn(CC2CCN(CCNS(=O)(=O)c3ccc(-c4ccccc4N(C)C)cc3)CC2)nn1 [AB1209, isobutyl 3-(1-((1-(2-((2′-(dimethylamino)-[1,1′-biphenyl])-4-sulfonamido)ethyl)piperidin-4-yl)methyl)-1H-1,2,3-triazol-4-yl)-5-fluoro-1H-indole-2-carboxylate] | 70 nM | –
